Assays:
[1] = target: T1, SyAcnB (Synechocystis sp. PCC 6803 aconitase B) (Synechocystis sp. PCC 6803, UniProt P74582); test: cis-aconitate formation, A240; format: biochemical; settings: read-out: % residual activity at 5 mM
T1 construct: gene acnB; full-length, synthetic gene in pGEX6P-1 (BamHI-XhoI), GST tag (elution with glutathione, no cleavage described), E. coli DH5alpha
T1 sequence (P74582 1-868): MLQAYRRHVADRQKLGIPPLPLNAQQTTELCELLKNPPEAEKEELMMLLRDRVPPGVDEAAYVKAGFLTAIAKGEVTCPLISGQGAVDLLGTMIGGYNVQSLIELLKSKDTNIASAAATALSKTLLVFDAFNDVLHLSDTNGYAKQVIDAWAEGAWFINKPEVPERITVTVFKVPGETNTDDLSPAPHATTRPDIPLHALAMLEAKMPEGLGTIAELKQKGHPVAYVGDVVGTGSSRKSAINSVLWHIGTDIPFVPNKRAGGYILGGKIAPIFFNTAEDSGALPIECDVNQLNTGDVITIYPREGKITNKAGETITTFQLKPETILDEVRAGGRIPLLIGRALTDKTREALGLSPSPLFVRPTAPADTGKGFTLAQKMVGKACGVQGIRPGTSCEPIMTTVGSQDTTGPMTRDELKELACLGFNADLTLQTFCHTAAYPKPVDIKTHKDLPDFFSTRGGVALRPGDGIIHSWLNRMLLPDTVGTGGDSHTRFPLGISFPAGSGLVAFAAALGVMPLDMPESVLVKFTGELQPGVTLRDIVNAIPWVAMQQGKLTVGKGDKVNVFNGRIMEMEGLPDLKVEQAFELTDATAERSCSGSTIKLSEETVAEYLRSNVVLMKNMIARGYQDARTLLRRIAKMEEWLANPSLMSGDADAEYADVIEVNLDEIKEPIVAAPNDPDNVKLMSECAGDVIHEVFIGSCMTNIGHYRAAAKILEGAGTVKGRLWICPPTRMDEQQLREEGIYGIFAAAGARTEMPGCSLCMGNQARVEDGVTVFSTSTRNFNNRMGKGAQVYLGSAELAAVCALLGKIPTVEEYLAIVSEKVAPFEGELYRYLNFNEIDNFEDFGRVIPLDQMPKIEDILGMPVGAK

purified protein = substrate: O=C(O)CC(O)(CC(=O)O)C(=O)O; test: purified protein; settings: Tris-HCl pH 7.7, 45 °C; reactivated holo-enzyme
[2] = substrate: O=C(O)CC(C(=O)O)C(O)C(=O)O; test: cis-aconitate formation, A240; format: biochemical, Synechocystis sp. PCC 6803; settings: Tris-HCl pH 8.0, 53 °C; reactivated holo-enzyme; DL-isocitrate used

| remaining activity at 5000 µM [1] | Molecule | further results |
| --- | --- | --- |
| 72% | O=C(O)CCC(=O)C(=O)O [2-OG] |  |
| 85% | N[C@@H](CCC(=O)O)C(=O)O [L-glutamate] |  |
| 69% | CC(=O)C(=O)O [pyruvate] |  |
| 81% | NC(=O)CC[C@H](N)C(=O)O [L-glutamine] |  |
| 84% | N[C@@H](CC(=O)O)C(=O)O [L-aspartate] |  |
|  | SyAcnB (Synechocystis sp. PCC 6803 aconitase B) (Synechocystis sp. PCC 6803 substr. Kazusa) (protein, full-length, synthetic gene in pGEX6P-1 (BamHI-XhoI), GST tag (elution with glutathione, no cleavage described), E. coli DH5alpha) MLQAYRRHVADRQKLGIPPLPLNAQQTTELCELLKNPPEAEKEELMMLLRDRVPPGVDEAAYVKAGFLTAIAKGEVTCPLISGQGAVDLLGTMIGGYNVQSLIELLKSKDTNIASAAATALSKTLLVFDAFNDVLHLSDTNGYAKQVIDAWAEGAWFINKPEVPERITVTVFKVPGETNTDDLSPAPHATTRPDIPLHALAMLEAKMPEGLGTIAELKQKGHPVAYVGDVVGTGSSRKSAINSVLWHIGTDIPFVPNKRAGGYILGGKIAPIFFNTAEDSGALPIECDVNQLNTGDVITIYPREGKITNKAGETITTFQLKPETILDEVRAGGRIPLLIGRALTDKTREALGLSPSPLFVRPTAPADTGKGFTLAQKMVGKACGVQGIRPGTSCEPIMTTVGSQDTTGPMTRDELKELACLGFNADLTLQTFCHTAAYPKPVDIKTHKDLPDFFSTRGGVALRPGDGIIHSWLNRMLLPDTVGTGGDSHTRFPLGISFPAGSGLVAFAAALGVMPLDMPESVLVKFTGELQPGVTLRDIVNAIPWVAMQQGKLTVGKGDKVNVFNGRIMEMEGLPDLKVEQAFELTDATAERSCSGSTIKLSEETVAEYLRSNVVLMKNMIARGYQDARTLLRRIAKMEEWLANPSLMSGDADAEYADVIEVNLDEIKEPIVAAPNDPDNVKLMSECAGDVIHEVFIGSCMTNIGHYRAAAKILEGAGTVKGRLWICPPTRMDEQQLREEGIYGIFAAAGARTEMPGCSLCMGNQARVEDGVTVFSTSTRNFNNRMGKGAQVYLGSAELAAVCALLGKIPTVEEYLAIVSEKVAPFEGELYRYLNFNEIDNFEDFGRVIPLDQMPKIEDILGMPVGAK | Km (purified protein): 1130 ± 40 µM; kcat (purified protein): 9.12 ± 0.14 s⁻¹; Km [2]: 1540 ± 170 µM; kcat [2]: 16.67 ± 0.34 s⁻¹ |

— PMC8385029 (Scientific Reports, 2021)
